From PubChem BioAssay (NCI)
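Values below derive from 48-hour exposures of cells grown in 96-well plates, with endpoints linearly interpolated between the two concentrations bracketing the appropriate inhibition level. Here, GI50 denotes the concentration required for 50% inhibition of growth. The concentration for full growth arrest is given as TGI.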

Key:
Assay in all cases: NCI tumour cell line growth inhibition, 48 h
[1] = system: CCRF-CEM leukemia
[2] = system: NCI-H522 lung
[3] = system: TK-10 renal
[4] = system: HOP-92 NSCLC
[5] = system: K-562 leukemia
[6] = system: SK-OV-3 ovarian
[7] = system: SN12C renal
[8] = system: NCI-H226 lung
[9] = system: SF-295 CNS
[10] = system: SK-MEL-28 melanoma
[11] = system: UACC-257 melanoma
[12] = system: OVCAR-4 ovarian
[13] = system: T-47D breast
[14] = system: MALME-3M melanoma
[15] = system: EKVX NSCLC
[16] = system: NCI-H460 lung
[17] = system: SK-MEL-5 melanoma
[18] = system: HL-60(TB) leukemia
[19] = system: HCT-116 colon
[20] = system: M14 melanoma
[21] = system: MDA-MB-231 breast
[22] = system: SK-MEL-2 melanoma
[23] = system: COLO 205 colon
[24] = system: MCF7 breast
[25] = system: RXF 393 renal
[26] = system: A498 renal
[27] = system: HT29 colon
[28] = system: PC-3 prostate
[29] = system: KM12 colon
[30] = system: NCI-H23 lung
[31] = system: SNB-19 CNS
[32] = system: HCT-15 colon
[33] = system: RPMI-8226 leukemia
[34] = system: SF-539 CNS
[35] = system: A549 NSCLC
[36] = system: IGROV1 ovarian
[37] = system: OVCAR-5 ovarian
[38] = system: ACHN renal
[39] = system: OVCAR-3 ovarian
[40] = system: NCI/ADR-RES ovarian
[41] = system: SW-620 colon
[42] = system: OVCAR-8 ovarian
[43] = system: HOP-62 NSCLC
[44] = system: CAKI-1 renal
[45] = system: 786-0 renal
[46] = system: UO-31 renal
[47] = system: MDA-MB-435
[48] = system: SF-268 CNS
[49] = system: MDA-MB-468 breast
[50] = system: BT-549 breast
[51] = system: UACC-62 melanoma
[52] = system: U251 CNS
[53] = system: DU-145 prostate
[54] = system: SNB-75 CNS
[55] = system: HS 578T breast
[56] = system: MOLT-4 leukemia
[57] = system: HCC-2998 colon
[58] = system: LOX IMVI melanoma

## COc1ccc(-c2nc3cc(C)ccc3n2CC(=O)N=Nc2c(O)[nH]c3ccc(Br)cc23)cc1
[1]
  GI50: 3.05 µM
  TGI: 32.1 µM
[2]
  GI50: 7.39 µM
  TGI: 31.1 µM
[3]
  GI50: 3.63 µM
  TGI: 20.6 µM
[4]
  GI50: 1.34 µM
  TGI: 4.59 µM
[5]
  GI50: 3.66 µM
  TGI: > 84.5 µM
[6]
  GI50: 3.92 µM
  TGI: 38.3 µM
[7]
  GI50: 2.16 µM
  TGI: 10.6 µM
[8]
  GI50: 1.97 µM
  TGI: 7.23 µM
[9]
  GI50: 2.93 µM
  TGI: 14.2 µM
[10]
  GI50: 1.51 µM
  TGI: 2.96 µM
[11]
  GI50: 1.95 µM
  TGI: 6.33 µM
[12]
  GI50: 2.76 µM
  TGI: 11.2 µM
[13]
  GI50: 2.85 µM
  TGI: 34.6 µM
[14]
  GI50: 1.59 µM
  TGI: 3.2 µM
[15]
  GI50: 2.1 µM
  TGI: 11.2 µM
[16]
  GI50: 1.86 µM
  TGI: 4.1 µM
[17]
  GI50: 2.59 µM
  TGI: 8.3 µM
[18]
  GI50: 5.51 µM
  TGI: > 84.5 µM
[19]
  GI50: 1.88 µM
  TGI: 4.49 µM
[20]
  GI50: 1.6 µM
  TGI: 3.49 µM
[21]
  GI50: 2.17 µM
  TGI: 7.97 µM
[22]
  GI50: 3.28 µM
  TGI: 18.6 µM
[23]
  GI50: 2.29 µM
  TGI: 8.06 µM
[24]
  GI50: 2.23 µM
  TGI: 10.2 µM
[25]
  GI50: 1.33 µM
  TGI: 3.54 µM
[26]
  GI50: 24.9 µM
  TGI: 60.1 µM
[27]
  GI50: 1.98 µM
  TGI: 4.36 µM
[28]
  GI50: 2.07 µM
  TGI: 14.5 µM
[29]
  GI50: 2.81 µM
  TGI: 16 µM
[30]
  GI50: 1.93 µM
  TGI: 5.88 µM
[31]
  GI50: 3.14 µM
  TGI: 49.6 µM
[32]
  GI50: 2.83 µM
  TGI: 16.9 µM
[33]
  GI50: 2.98 µM
  TGI: 42.2 µM
[34]
  GI50: 1.55 µM
  TGI: 3.36 µM
[35]
  GI50: 1.75 µM
  TGI: 3.95 µM
[36]
  GI50: 2.93 µM
  TGI: 18.2 µM
[37]
  GI50: 2.56 µM
  TGI: 13.6 µM
[38]
  GI50: 2.38 µM
  TGI: 8.75 µM
[39]
  GI50: 1.93 µM
  TGI: 4.29 µM
[40]
  GI50: 1.88 µM
  TGI: 5 µM
[41]
  GI50: 2.4 µM
  TGI: 9.15 µM
[42]
  GI50: 1.58 µM
  TGI: 3.49 µM
[43]
  GI50: 2.31 µM
  TGI: 9.66 µM
[44]
  GI50: 3.6 µM
  TGI: 29.1 µM
[45]
  GI50: 3.48 µM
  TGI: 16.6 µM
[46]
  GI50: 19.4 µM
  TGI: > 84.5 µM
[47]
  GI50: 2.12 µM
  TGI: 7.52 µM
[48]
  GI50: 2.94 µM
  TGI: 31.7 µM
[49]
  GI50: 1.88 µM
  TGI: 4.41 µM
[50]
  GI50: 2.05 µM
  TGI: 5.92 µM
[51]
  GI50: 1.78 µM
  TGI: 6.09 µM
[52]
  GI50: 1.64 µM
  TGI: 3.55 µM
[53]
  GI50: 3.29 µM
  TGI: 16.1 µM
[54]
  GI50: 1.61 µM
  TGI: 12.7 µM
[55]
  GI50: 1.96 µM
  TGI: 6.44 µM
[56]
  GI50: 3.22 µM
  TGI: 44.5 µM
[57]
  GI50: 2.75 µM
  TGI: 16.4 µM
[58]
  GI50: 1.48 µM
  TGI: 3.29 µM
